# Laboratory results: patent publication US9822099B2, “Triazole derivatives” (priority 2013, dated 2017)
# Marks after values point to notes of the source that are not given here.
# Tested on: Leptosphaeria nodorum
# Experiment: Example K: Leptosphaeria nodorum test (wheat)/preventive
# Type: in vivo
# Settings: 500 ppm of active ingredient, preventive, evaluated 8 days after inoculation
# Procedure: Solvent: 49 parts by weight of N,N-dimethylacetamide Emulsifier: 1 part by weight of alkylaryl polyglycol ether To produce a suitable preparation of active compound, 1 part by weight of active compound or active compound combination is mixed with the stated amounts of solvent and emulsifier, and the concentrate is diluted with water to the desired concentration. To test for preventive activity, young plants are sprayed with the preparation of active compound or active compound combination at the stated rate of application. After the spray coating has been dried, the plants are sprayed with a spore suspension of Leptosphaeria nodorum.
row,Structure (SMILES),Eff. %
1,OC(Cc1ccc(Cl)nc1)(Cn1cncn1)C1(Cl)CC1 (centres unmarked) [Example I-4],80%
2,CC(CF)(CF)C(O)(Cc1ccncc1F)Cn1cncn1 (centres unmarked) [Example I-21],94%
3,OC(Cc1ccc(Cl)c(Cl)n1)(Cn1cncn1)C1(Cl)CC1 (centres unmarked) [Example I-31],88%
4,OC(Cc1ccnc(Cl)c1)(Cn1cncn1)C1(F)CC1 (centres unmarked) [Example I-33],86%

# Tested on: Blumeria graminis f. sp. hordei
# Experiment: Example G: Blumeria test (barley)/preventive
# Type: in vivo
# Settings: 500 ppm of active ingredient, preventive, evaluated 7 days after inoculation
# Procedure: Solvent: 49 parts by weight of N,N-dimethylacetamide Emulsifier: 1 part by weight of alkylaryl polyglycol ether To produce a suitable preparation of active compound, 1 part by weight of active compound or active compound combination is mixed with the stated amounts of solvent and emulsifier, and the concentrate is diluted with water to the desired concentration. To test for preventive activity, young plants are sprayed with the preparation of active compound or active compound combination at the stated rate of application. After the spray coating has been dried, the plants are dusted with spores of Blumeria graminis f. sp. hordei.
row,Structure (SMILES),Eff. %
1,OC(Cc1ccc(Cl)nc1)(Cn1cncn1)C1(Cl)CC1 (centres unmarked) [Example I-4],100%
2,CC(CF)(CF)C(O)(Cc1ccncc1F)Cn1cncn1 (centres unmarked) [Example I-21],100%
3,OC(Cc1ccc(Cl)c(Cl)n1)(Cn1cncn1)C1(Cl)CC1 (centres unmarked) [Example I-31],100%
4,OC(Cc1ccnc(Cl)c1)(Cn1cncn1)C1(F)CC1 (centres unmarked) [Example I-33],100%

# Tested on: Pyrenophora teres
# Experiment: Example C: in vivo preventive test on Pyrenophora teres (net blotch on barley)
# Settings: 500 ppm of active ingredient; barley plants, preventive spray; evaluated 14 days after inoculation
# Procedure: (§1) The young plants of barley are treated by spraying the active ingredient prepared as described above. Control plants are treated only with an aqueous solution of acetone/Dimethyl sulfoxide/Tween®. After 24 hours, the plants are contaminated by spraying the leaves with an aqueous suspension of Pyrenophora teres spores.
row,Structure (SMILES),Eff. %
1,OC(Cc1ccnc(Cl)c1)(Cn1cncn1)C1(F)CC1 (centres unmarked) [Example I-33],75%

# Tested on: Phakopsora pachyrhizi
# Experiment: Example L: Phakopsora test (soybeans)/preventive
# Type: in vivo
# Settings: 10 ppm of active ingredient, preventive, evaluated 7 days after inoculation
row,Structure (SMILES),Eff. %
1,CC(CF)(CF)C(O)(Cc1ccncc1F)Cn1cncn1 (centres unmarked) [Example I-21],93%

# Same assay, conditions: 100 ppm of active ingredient, preventive, evaluated 7 days after inoculation
row,Structure (SMILES),Eff. %
1,OC(Cc1ccc(Cl)nc1)(Cn1cncn1)C1(Cl)CC1 (centres unmarked) [Example I-4],95%

# Tested on: Fusarium culmorum
# Experiment: Example H: Fusarium culmorum-test (wheat)/curative
# Type: in vivo
# Settings: 500 ppm of active ingredient, curative, evaluated 5 days after inoculation
# Procedure: (§2) Solvent: 49 parts by weight of N,N-dimethylacetamide
# (§3) Emulsifier: 1 part by weight of alkylaryl polyglycol ether
# (§4) To produce a suitable preparation of active compound, 1 part by weight of active compound or active compound combination is mixed with the stated amounts of solvent and emulsifier, and the concentrate is diluted with water to the desired concentration.
# To test for curative activity, young plants are slightly injured by using a sandblast and afterwards they are sprayed with a conidia suspension of Fusarium culmorum and placed for 24 hours in a greenhouse under a translucent incubation cabinet at a temperature of approximately 22° C. and a relative atmospheric humidity of approximately 100% and are subsequently sprayed with the preparation of active compound at the stated rate of application.
# After the spray coating has been dried, the plants remain in the greenhouse under translucent incubation cloches at a temperature of approximately 22° C. and a relative atmospheric humidity of approximately 100%.
# (§5) The test is evaluated 5 days after the inoculation. 0% means an efficacy which corresponds to that of the untreated control, while an efficacy of 100% means that no disease is observed.
row,Structure (SMILES),Eff. %
1,OC(Cc1ccc(Cl)nc1)(Cn1cncn1)C1(Cl)CC1 (centres unmarked) [Example I-4],92%
2,CC(CF)(CF)C(O)(Cc1ccncc1F)Cn1cncn1 (centres unmarked) [Example I-21],100%

# Tested on: Puccinia recondita
# Experiment: Example B: in vivo preventive test on Puccinia recondita (brown rust on wheat)
# Settings: 100 ppm of active ingredient; wheat plants, preventive spray; evaluated 11 days after inoculation
# Procedure: as §1, with “wheat” for “barley”, “Puccinia recondita” for “Pyrenophora teres”
row,Structure (SMILES),Eff. %
1,CC(CF)(CF)C(O)(Cc1ccncc1F)Cn1cncn1 (centres unmarked) [Example I-21],98%
2,OC(Cc1ccc(Cl)c(Cl)n1)(Cn1cncn1)C1(Cl)CC1 (centres unmarked) [Example I-31],83%

# Same assay, conditions: 500 ppm of active ingredient; wheat plants, preventive spray; evaluated 11 days after inoculation
row,Structure (SMILES),Eff. %
1,OC(Cc1ccc(Cl)nc1)(Cn1cncn1)C1(Cl)CC1 (centres unmarked) [Example I-4],100%
2,OC(Cc1ccnc(Cl)c1)(Cn1cncn1)C1(F)CC1 (centres unmarked) [Example I-33],93%

# Tested on: Fusarium nivale (var. majus)
# Experiment: Example J: Fusarium nivale (var. majus)-test (wheat)/preventive
# Type: in vivo
# Settings: 500 ppm of active ingredient, preventive, evaluated 5 days after inoculation
# Procedure: as §2, §3, §4
# To test for preventive activity, young plants are sprayed with the preparation of active compound or active compound combination at the stated rate of application.
# After the spray coating has been dried, the plants are slightly injured by using a sandblast and afterwards they are sprayed with a conidia suspension of Fusarium nivale (var. majus).
# The plants are placed in the greenhouse under a translucent incubation cabinet at a temperature of approximately 10° C. and a relative atmospheric humidity of approximately 100%.
# as §5
row,Structure (SMILES),Eff. %
1,OC(Cc1ccc(Cl)nc1)(Cn1cncn1)C1(Cl)CC1 (centres unmarked) [Example I-4],71%
2,CC(CF)(CF)C(O)(Cc1ccncc1F)Cn1cncn1 (centres unmarked) [Example I-21],100%
3,OC(Cc1ccc(Cl)c(Cl)n1)(Cn1cncn1)C1(Cl)CC1 (centres unmarked) [Example I-31],75%
4,OC(Cc1ccnc(Cl)c1)(Cn1cncn1)C1(F)CC1 (centres unmarked) [Example I-33],93%

# Tested on: Sphaerotheca fuliginea
# Experiment: Example E: in vivo preventive test on Sphaerotheca fuliginea (powdery mildew on cucurbits)
# Settings: 100 ppm of active ingredient; gherkin plants, preventive spray; evaluated 15 days after inoculation
# Procedure: as §1, with “gherkin” for “barley”, “Sphaerotheca fuliginea” for “Pyrenophora teres”
row,Structure (SMILES),Eff. %
1,CC(CF)(CF)C(O)(Cc1ccncc1F)Cn1cncn1 (centres unmarked) [Example I-21],100%
2,OC(Cc1ccc(Cl)c(Cl)n1)(Cn1cncn1)C1(Cl)CC1 (centres unmarked) [Example I-31],90%

# Same assay, conditions: 500 ppm of active ingredient; gherkin plants, preventive spray; evaluated 15 days after inoculation
row,Structure (SMILES),Eff. %
1,OC(Cc1ccc(Cl)nc1)(Cn1cncn1)C1(Cl)CC1 (centres unmarked) [Example I-4],100%
2,OC(Cc1ccnc(Cl)c1)(Cn1cncn1)C1(F)CC1 (centres unmarked) [Example I-33],100%

# Tested on: Fusarium graminearum
# Experiment: not given
# Type: in vivo
# Settings: 500 ppm of active ingredient; barley, preventive; evaluated 5 days after inoculation
row,Structure (SMILES),Eff. %
1,CC(CF)(CF)C(O)(Cc1ccncc1F)Cn1cncn1 (centres unmarked) [Example I-21],100%
2,OC(Cc1ccnc(Cl)c1)(Cn1cncn1)C1(F)CC1 (centres unmarked) [Example I-33],100%

# Tested on: Uromyces appendiculatus
# Experiment: Example F: in vivo preventive test on Uromyces appendiculatus (bean rust)
# Settings: 100 ppm of active ingredient; bean plants, preventive spray; evaluated 11 days after inoculation
# Procedure: as §1, with “bean” for “barley”, “Uromyces appendiculatus” for “Pyrenophora teres”
row,Structure (SMILES),Eff. %
1,CC(CF)(CF)C(O)(Cc1ccncc1F)Cn1cncn1 (centres unmarked) [Example I-21],100%
2,OC(Cc1ccc(Cl)c(Cl)n1)(Cn1cncn1)C1(Cl)CC1 (centres unmarked) [Example I-31],94%

# Same assay, conditions: 500 ppm of active ingredient; bean plants, preventive spray; evaluated 11 days after inoculation
row,Structure (SMILES),Eff. %
1,OC(Cc1ccc(Cl)nc1)(Cn1cncn1)C1(Cl)CC1 (centres unmarked) [Example I-4],97%
2,OC(Cc1ccnc(Cl)c1)(Cn1cncn1)C1(F)CC1 (centres unmarked) [Example I-33],100%

# Tested on: not given
# Experiment: not given
# Settings: pH 2.7
row,Structure (SMILES),LogP
1,OC(Cc1ccc(Cl)nc1)(Cn1cncn1)C1(Cl)CC1 (centres unmarked) [Example I-4],1.84^[a]
2,CC(CF)(CF)C(O)(Cc1ccncc1F)Cn1cncn1 (centres unmarked) [Example I-21],1.27^[a]
3,OC(Cc1ccc(Cl)c(Cl)n1)(Cn1cncn1)C1(Cl)CC1 (centres unmarked) [Example I-31],2.66^[a]
4,OC(Cc1ccnc(Cl)c1)(Cn1cncn1)C1(F)CC1 (centres unmarked) [Example I-33],1.44^[a]

# Tested on: Septoria tritici
# Experiment: Example D: in vivo preventive test on Septoria tritici (leaf spot on wheat)
# Settings: 100 ppm of active ingredient; wheat plants, preventive spray; evaluated 24 days after inoculation
# Procedure: as §1, with “wheat” for “barley”, “Septoria tritici” for “Pyrenophora teres”
row,Structure (SMILES),Eff. %
1,CC(CF)(CF)C(O)(Cc1ccncc1F)Cn1cncn1 (centres unmarked) [Example I-21],100%
2,OC(Cc1ccc(Cl)c(Cl)n1)(Cn1cncn1)C1(Cl)CC1 (centres unmarked) [Example I-31],100%

# Same assay, conditions: 500 ppm of active ingredient; wheat plants, preventive spray; evaluated 24 days after inoculation
row,Structure (SMILES),Eff. %
1,OC(Cc1ccc(Cl)nc1)(Cn1cncn1)C1(Cl)CC1 (centres unmarked) [Example I-4],96%
2,OC(Cc1ccnc(Cl)c1)(Cn1cncn1)C1(F)CC1 (centres unmarked) [Example I-33],100%

# Tested on: Botrytis cinerea
# Experiment: Example A: in vivo preventive test on Botrytis cinerea (grey mould)
# Settings: 100 ppm of active ingredient; gherkin plants, preventive spray; evaluated 4 to 5 days after inoculation
# Procedure: as §1, with “gherkin” for “barley”, “Botrytis cinerea” for “Pyrenophora teres”
row,Structure (SMILES),Eff. %
1,OC(Cc1ccnc(Cl)c1)(Cn1cncn1)C1(F)CC1 (centres unmarked) [Example I-33],94%

# Same assay, conditions: 500 ppm of active ingredient; gherkin plants, preventive spray; evaluated 4 to 5 days after inoculation
row,Structure (SMILES),Eff. %
1,OC(Cc1ccc(Cl)nc1)(Cn1cncn1)C1(Cl)CC1 (centres unmarked) [Example I-4],100%
